This note sets out measurements from ChEMBL document CHEMBL3124873, “cis-1-Oxo-heterocyclyl-4-amido cyclohexane derivatives as NPY5 receptor antagonists” (Bioorg Med Chem Lett, 2014).

For series [1], the system named is Liver microsome. Description: Intrinsic clearance in rat pooled liver microsomes at 1 uM by LC/MS analysis. The format is ADME. In general terms: Microsomes from liver hold many membrane-bound enzymes, among them those of drug oxidation.
The nature of series [2]: Solubility of the compound at pH 7.4 by classic shake flask method. Format: physicochemical. The note with it: buffer.
Series [3] concerns Liver microsome. Nature of the series: Intrinsic clearance in human pooled liver microsomes at 1 uM by LC/MS analysis. Format: ADME.
A short description of series [4]: Clearance in Sprague-Dawley rat at 1 mg/kg, iv and 2 mg/kg, po by LC/MS analysis. Format: ADME, organism-based. Particulars: in vivo.
Series [5] in a line: Ratio of drug level in brain to plasma in femoral artery cannulated Sprague-Dawley rat at 10 mg/kg, po after 1 hr by LC/MS/MS analysis. The format is ADME, organism-based. Set-up: dose 10 mg/kg, route oral. The note with it: read-out: BPR.
Series [6] in a line: Oral bioavailability in Sprague-Dawley rat at 2 mg/kg by LC/MS analysis. Format: ADME, organism-based. Particulars: in vivo.
A short description of series [7]: Volume of distribution at steady state in Sprague-Dawley rat at 1 mg/kg, iv and 2 mg/kg, po by LC/MS analysis. The format is ADME, organism-based. The note with it: in vivo, read-out: Vdss.
The nature of series [8]: Plasma concentration in femoral artery cannulated Sprague-Dawley rat at 10 mg/kg, po after 1 hr by LC/MS/MS analysis. The format is ADME, organism-based. More on the design: dose 10 mg/kg, route oral.
Series [9] can be described thus: Half life in Sprague-Dawley rat at 1 mg/kg, iv and 2 mg/kg, po by LC/MS analysis. The format is ADME, organism-based. The note with it: in vivo.
Series [10] deals with T1, Neuropeptide Y receptor type 5 (Homo sapiens, UniProt Q15761).
T1 sequence (Q15761 whole entry): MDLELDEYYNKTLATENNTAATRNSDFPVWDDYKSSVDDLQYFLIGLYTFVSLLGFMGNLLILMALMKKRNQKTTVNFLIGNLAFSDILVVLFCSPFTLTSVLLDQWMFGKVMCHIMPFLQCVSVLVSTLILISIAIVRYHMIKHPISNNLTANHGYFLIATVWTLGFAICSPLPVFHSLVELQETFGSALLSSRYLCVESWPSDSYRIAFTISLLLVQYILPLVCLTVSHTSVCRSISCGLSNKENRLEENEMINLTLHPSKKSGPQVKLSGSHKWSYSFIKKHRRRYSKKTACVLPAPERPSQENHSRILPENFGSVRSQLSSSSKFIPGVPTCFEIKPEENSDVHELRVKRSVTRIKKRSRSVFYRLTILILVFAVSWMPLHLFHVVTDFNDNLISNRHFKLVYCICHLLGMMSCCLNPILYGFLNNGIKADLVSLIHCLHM
Nature of the series: Displacement of [125I]PYY from human NPY5 receptor transfected in LM(tk-) cell membranes after 120 mins by solid scintillation counting.

In series [11] the test system is Rattus norvegicus. Nature of the series: AUC (0 to infinity) in Sprague-Dawley rat at 2 mg/kg, po by LC/MS analysis. The note with it: in vivo. Set-up: time infinity, dose 2 mg/kg, route oral. Format: ADME, organism-based, Plasma.
The nature of series [12]: Drug uptake in femoral artery cannulated Sprague-Dawley rat brain at 10 mg/kg, po after 1 hr by LC/MS/MS analysis. Format: ADME, organism-based. Set-up: dose 10 mg/kg, route oral. Particulars: read-out: Drug uptake.

Molecules are shown by their SMILES. In brackets after ≈: the same amount, converted by molar mass. Bounds are passed on as bounds.

Consider `CN1CCCN([C@H]2CC[C@@H](C(=O)Nc3ccc(-c4cc(F)cc(F)c4)cn3)CC2)C1=O`, for which the CLH in [1] is 19 mL/min; in [3] it was 1.1 L/min. For the same compound, in series [2], the thermodynamic solubility is 5.4 µg/mL (≈ 12.6 µM).

The compound `CN1CCN([C@H]2CC[C@@H](C(=O)Nc3ccc(-c4cc(F)cc(F)c4)cn3)CC2)C1=O` showed a clearance in series [4] of 9.5 mL/min/kg. The Kp at 1 h in series [5] was determined as 0.6. The bioavailability in series [6] was determined as 110%. Also, the Vd in series [7] is 2.8 L/kg. Besides, the concentration at 1 h in series [8] worked out at 5000 nM; in series [12], 3100 nM. For the same compound, the CLH in [1] came to 8.8 mL/min; in [3], 0.8 L/min. The half-life in [9] was 3.5 h. The thermodynamic solubility in [2] turned out to be 1.1 µg/mL (≈ 2.65 µM). Moreover, the Ki in series [10] amounted to 5 nM. This compound showed an AUC in series [11] of 4100 ng·h/mL.

Turning to `O=C1NCCN1[C@H]1CC[C@@H](C(=O)Nc2ccc(-c3cc(F)cc(F)c3)cn2)CC1`, the Kp at 1 h in series [5] is 0.2. The values for the concentration at 1 h in [8] and in [12] were 6800 nM and 1400 nM, respectively. The CLH in series [1] worked out at 37 mL/min; in series [3], 1.7 L/min. The compound also had a thermodynamic solubility in series [2] of 4.5 µg/mL (≈ 11.2 µM). The compound also gave a Ki in [10] of 5 nM.

Take `C[C@@H]1CN([C@H]2CC[C@@H](C(=O)Nc3ccc(-c4cc(F)cc(F)c4)cn3)CC2)C(=O)O1`: the CLH in [1] is 7 mL/min; in series [3] it was 0.9 L/min. In [10], this compound showed an inhibition constant (Ki) of 3 nM.

For the compound `CC(C)(C)C1CN([C@H]2CC[C@@H](C(=O)Nc3ccc(-c4cc(F)cc(F)c4)cn3)CC2)C(=O)O1` (mixture of isomers), the CLH in [1] worked out at 25 mL/min; in series [3], 3.9 L/min. Also, in [10], the inhibitory constant (Ki) came out at 4 nM.

Consider `O=C1CCCN1[C@H]1CC[C@@H](C(=O)Nc2cnc(-c3cc(F)cc(F)c3)cn2)CC1`, for which the CLH in series [1] came to 9.5 mL/min; in [3], 0.9 L/min. In series [10], the Ki was 6 nM.

Regarding `O=C1CCCCN1[C@H]1CC[C@@H](C(=O)Nc2ccc(-c3cc(F)cc(F)c3)cn2)CC1`, the affinity in [10], expressed as Ki, was 2 nM.

Regarding `O=C1CCCN1[C@H]1CC[C@@H](C(=O)Nc2ncc(-c3cc(F)cc(F)c3)cn2)CC1`, in [5], the Kp at 1 h is 0.14. For the same compound, the concentration at 1 h in [8] was determined as 2800 nM; in series [12] it was 380 nM. Besides, the CLH was determined as 31 mL/min in series [1] and 0.7 L/min in series [3]. Further, the solubility (thermodynamic) in series [2] turned out to be 38 µg/mL (≈ 94.9 µM). Moreover, in [10], the inhibitory constant (Ki) turned out to be 5 nM.

Turning to `CC(C)N1CCN([C@H]2CC[C@@H](C(=O)Nc3ccc(-c4cc(F)cc(F)c4)cn3)CC2)C1=O`, the Ki in series [10] came out at 41 nM.

On to `O=C1NCCCN1[C@H]1CC[C@@H](C(=O)Nc2ccc(-c3cc(F)cc(F)c3)cn2)CC1`, for which the CLH in [1] was 18 mL/min; in [3], 1.1 L/min. In [2], this compound came in with a solubility (thermodynamic) of 1.3 µg/mL (≈ 3.14 µM).

Compound `CN(c1ccc(-c2cc(F)cc(F)c2)cn1)C(=O)[C@H]1CC[C@@H](N2CCCC2=O)CC1` gave an inhibition constant Ki in series [10] of more than 10000 nM.

As for `C[C@H]1CN([C@H]2CC[C@@H](C(=O)Nc3ccc(-c4cc(F)cc(F)c4)cn3)CC2)C(=O)O1`, the results for the CLH in series [1] and in [3] were 15 mL/min and 1.1 L/min, respectively. In series [10], the Ki was found to be 7 nM.

In turn, `O=C1CCCN1[C@H]1CC[C@@H](C(=O)Nc2ccc(-c3cc(F)cc(F)c3)cn2)CC1` showed a clearance in [4] of 8.67 mL/min/kg. For the same compound, the Kp at 1 h in series [5] was found to be 1. Moreover, in series [6], the bioavailability is 110%. Besides, the Vd in [7] turned out to be 3.2 L/kg. The concentration at 1 h in [8] and in [12] was 2800 nM in each case. For the same compound, the results for the CLH in [1] and in series [3] were 12 mL/min and 1 L/min, respectively. Also, in series [9], the half-life was 4.4 h. This compound also registered a solubility (thermodynamic) in series [2] of 0.7 µg/mL (≈ 1.75 µM). The inhibition constant (Ki) in [10] was found to be 8 nM. The compound also gave an AUC in series [11] of 4300 ng·h/mL.

Consider `O=C1N(C2CC2)CCN1[C@H]1CC[C@@H](C(=O)Nc2ccc(-c3cc(F)cc(F)c3)cn2)CC1`, for which the CLH in series [1] was 8.4 mL/min; in series [3], 1 L/min. Also, affinity in series [10] was put at a Ki of 9 nM.

Turning to `CCN1CCN([C@H]2CC[C@@H](C(=O)Nc3ccc(-c4cc(F)cc(F)c4)cn3)CC2)C1=O`, the CLH in series [1] turned out to be 17 mL/min; in series [3], 1.6 L/min. The same compound gave a thermodynamic solubility in series [2] of 1.6 µg/mL (≈ 3.73 µM). In addition, the inhibition constant Ki in series [10] was 10 nM.

For the compound `O=C1OCCN1[C@H]1CC[C@@H](C(=O)Nc2ccc(-c3cc(F)cc(F)c3)cn2)CC1`, the clearance in series [4] was 14.2 mL/min/kg. Also, the Kp at 1 h in [5] is 0.5. Further, in series [6], the bioavailability is 83%. Moreover, the Vd in series [7] stood at 3.4 L/kg. The figures for the concentration at 1 h in series [8] and in [12] were 3000 nM and 1500 nM, respectively. Moreover, the CLH in series [1] was 9.5 mL/min; in series [3] it was 0.4 L/min. Also, the half-life in series [9] is 2.8 h. For the same compound, in series [2], the solubility (thermodynamic) stood at 4 µg/mL (≈ 9.96 µM). The compound also yielded an AUC in series [11] of 2000 ng·h/mL.

By solubility (thermodynamic) is commonly meant solubility found after equilibrating the solid with the medium. By half-life is commonly meant how long it takes for the measured level to halve. A word on the Ki: it is the equilibrium dissociation constant of an inhibitor or competing ligand from its target. For orientation: AUC means the area under the concentration-time curve, a measure of exposure. A high value points to high exposure.
